Laboratory results as given in patent US20240366589A1, “NHE3-BINDING COMPOUNDS AND METHODS FOR INHIBITING PHOSPHATE TRANSPORT” (Ardelyx, Inc., priority 2013, published 2024).

Key:
[1] = target: T1, Human NHE3 (Homo sapiens, UniProt P48764); experiment: Cell-based NHE3 activity under prompt conditions (OK cells, BCECF pH recovery), human NHE3; conditions: prompt conditions
T1 construct: expressed in transfected cells; host or cells: Opossum kidney (OK) cells (ATCC), electroporation
T1 sequence (P48764 26-834): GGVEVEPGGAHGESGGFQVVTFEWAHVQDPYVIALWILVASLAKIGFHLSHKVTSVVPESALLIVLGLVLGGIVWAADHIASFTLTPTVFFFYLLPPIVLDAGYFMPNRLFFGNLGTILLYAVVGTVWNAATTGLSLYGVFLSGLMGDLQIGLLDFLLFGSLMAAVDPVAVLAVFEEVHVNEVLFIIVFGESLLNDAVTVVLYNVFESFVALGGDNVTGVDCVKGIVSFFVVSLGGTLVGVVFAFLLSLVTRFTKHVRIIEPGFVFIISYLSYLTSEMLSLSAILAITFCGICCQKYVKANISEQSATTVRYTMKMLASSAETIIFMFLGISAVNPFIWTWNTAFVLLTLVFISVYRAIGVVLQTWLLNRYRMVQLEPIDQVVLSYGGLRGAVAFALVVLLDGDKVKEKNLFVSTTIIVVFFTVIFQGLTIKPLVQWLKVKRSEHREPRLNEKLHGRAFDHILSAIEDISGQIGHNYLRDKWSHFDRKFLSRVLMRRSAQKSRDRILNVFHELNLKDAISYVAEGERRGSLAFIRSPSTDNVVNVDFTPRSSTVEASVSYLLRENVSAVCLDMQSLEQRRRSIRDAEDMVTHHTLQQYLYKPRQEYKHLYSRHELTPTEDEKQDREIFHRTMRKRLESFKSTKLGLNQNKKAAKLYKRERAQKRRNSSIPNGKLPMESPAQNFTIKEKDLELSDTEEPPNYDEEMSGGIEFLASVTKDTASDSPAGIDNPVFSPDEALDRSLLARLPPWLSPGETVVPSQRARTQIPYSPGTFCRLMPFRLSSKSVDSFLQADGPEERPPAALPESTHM
In short: (§1)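 Fluorometric NHE3 antiport assay in opossum kidney cells carrying rat or human NHE3, using BCECF pH recovery after NH4Cl-prepulse acid loading. pIC50 values derive from initial rates averaged across at least two replicates.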

[2] = system: phosphorus and calcium levels in the urine of rats; experiment: Urinary excretion of phosphate and calcium in rats (16 h overnight urine); assay type: in vivo, rat; conditions: rats, oral gavage, 16 h post-dose
[3] = target: T2, Rat NHE3 (Rattus norvegicus, UniProt P26433); experiment: Cell-based NHE3 activity under prompt conditions (OK cells, BCECF pH recovery), rat NHE3; conditions: prompt conditions; for IC50: read-out: Prompt Rat NHE3 pIC50 (converted)
T2 construct: expressed in transfected cells; host or cells: Opossum kidney (OK) cells (ATCC), electroporation
In short: as §1

[4] = system: absorption of sodium from the intestinal lumen; experiment: Fecal form score (FFS) 16 h after oral dose in rats; assay type: in vivo, rat; conditions: oral gavage, 16 h post-dose, scale 1-5
In short: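 Fecal form was scored at 16 h post-dose on a 1–5 wetness scale (normal pellet to liquid stream), with two independent observations averaged across six rats per group. Animals were 8-week-old Sprague-Dawley rats given test compound or water orally in the late afternoon and kept in metabolic cages.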

[5] = system: absorption of sodium from the intestinal lumen; experiment: Inhibition of intestinal sodium absorption: urinary sodium (uNa) 16 h after single oral dose in rats; assay type: in vivo, rat; conditions: oral gavage, 16 h post-dose
In short: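 Urinary sodium mass over the 16 h after one oral gavage dose, measured by cation-exchange ion chromatography, reported as percent of water-vehicle group; ANOVA plus Dunnett's post hoc test. Groups of six 8-week-old Sprague-Dawley rats, housed individually in metabolic cages post-dose, fed and watered freely.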

T2 sequence (P26433 29-831): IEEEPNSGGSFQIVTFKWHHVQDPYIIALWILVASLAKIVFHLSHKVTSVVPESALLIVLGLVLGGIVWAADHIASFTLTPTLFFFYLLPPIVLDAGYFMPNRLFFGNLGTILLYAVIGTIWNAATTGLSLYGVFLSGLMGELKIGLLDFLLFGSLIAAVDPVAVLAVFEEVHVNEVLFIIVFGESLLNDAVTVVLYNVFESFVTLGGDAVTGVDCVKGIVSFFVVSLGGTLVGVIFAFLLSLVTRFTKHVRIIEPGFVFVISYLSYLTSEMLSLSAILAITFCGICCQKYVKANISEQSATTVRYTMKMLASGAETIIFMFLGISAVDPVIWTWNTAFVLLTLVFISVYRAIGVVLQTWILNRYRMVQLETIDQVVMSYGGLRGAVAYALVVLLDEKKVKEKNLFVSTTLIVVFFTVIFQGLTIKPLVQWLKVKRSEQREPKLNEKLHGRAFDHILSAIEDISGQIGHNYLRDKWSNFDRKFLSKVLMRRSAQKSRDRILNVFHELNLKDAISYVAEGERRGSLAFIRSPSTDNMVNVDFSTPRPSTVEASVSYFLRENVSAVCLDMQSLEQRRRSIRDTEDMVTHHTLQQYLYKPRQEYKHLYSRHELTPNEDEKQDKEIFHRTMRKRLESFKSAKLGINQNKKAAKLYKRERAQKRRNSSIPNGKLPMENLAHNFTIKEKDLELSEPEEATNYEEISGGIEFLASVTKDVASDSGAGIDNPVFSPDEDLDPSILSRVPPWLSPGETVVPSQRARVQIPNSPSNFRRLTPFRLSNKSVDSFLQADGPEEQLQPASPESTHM

SMILES | Prompt Human NHE3 pIC50 [1] | Urine P % of control ([2]; dose 10 mg/kg) [%] | Prompt Rat NHE3 pIC50 [3] | Fecal Form Score average ([4]; dose 10 mg/kg) | Urine Na % of control ([5]; dose 10 mg/kg) [%] | Urine P % of control ([2]; dose 1 mg/kg) [%] | Urine P % of control ([2]; dose 3 mg/kg) [%] | Fecal Form Score average ([4]; dose 1 mg/kg) | Fecal Form Score average ([4]; dose 3 mg/kg) | Urine Na % of control ([5]; dose 1 mg/kg) [%] | Urine Na % of control ([5]; dose 3 mg/kg) [%] | IC50 [3] [nM]
CN1Cc2c(Cl)cc(Cl)cc2[C@H](c2cccc(S(=O)(=O)NCCOCCOCCOCCNC(=O)CN3CCN(CC(=O)NCCOCCOCCOCCNS(=O)(=O)c4cccc([C@@H]5CN(C)Cc6c(Cl)cc(Cl)cc65)c4)CCN(CC(=O)NCCOCCOCCOCCNS(=O)(=O)c4cccc([C@@H]5CN(C)Cc6c(Cl)cc(Cl)cc65)c4)CCN(CC(=O)NCCOCCOCCOCCNS(=O)(=O)c4cccc([C@@H]5CN(C)Cc6c(Cl)cc(Cl)cc65)c4)CC3)c2)C1 [compound 58] | 7.30 | 68 | 6.30 | 1 | 82 |  |  |  |  |  |  | 
NCCOCCOCCNS(=O)(=O)c1ccc(O[C@H]2c3ccccc3C[C@@H]2N2CCCCC2)cc1 [compound 60] | 7.10 | 92 | 6.35 | 1 | 67 |  |  |  |  |  |  | 
CN1Cc2c(Cl)cc(Cl)cc2[C@H](c2cccc(S(=O)(=O)NCCOCCOCCOCCNC(=O)CC(O)(CC(=O)NCCOCCOCCOCCNS(=O)(=O)c3cccc([C@@H]4CN(C)Cc5c(Cl)cc(Cl)cc54)c3)C(=O)NCCOCCOCCOCCNS(=O)(=O)c3cccc([C@@H]4CN(C)Cc5c(Cl)cc(Cl)cc54)c3)c2)C1 [compound 61] | 7.80 | 67 | 7.00 | 3 | 21 | 96 | 70 | 1 | 1 | 93 | 50 | 
NCCOCCOCCNS(=O)(=O)c1ccc(O[C@H]2c3cc(Cl)cc(Cl)c3C[C@@H]2N2CCCCC2)cc1 [compound 62] | 7.25 | 77 | <5.00 | 1 | 121 |  |  |  |  |  |  | 
CN1Cc2c(Cl)cc(Cl)cc2[C@H](c2cccc(S(=O)(=O)NCCOCCOCCOCCNC(=O)NCCCN(CCCNC(=O)NCCOCCOCCOCCNS(=O)(=O)c3cccc([C@@H]4CN(C)Cc5c(Cl)cc(Cl)cc54)c3)CCCNC(=O)NCCOCCOCCOCCNS(=O)(=O)c3cccc([C@@H]4CN(C)Cc5c(Cl)cc(Cl)cc54)c3)c2)C1 [compound 64] | 8.20 | 66 | 7.40 | 1 | 34 |  |  |  |  |  |  | 
O=C(O)CN(CCN(CC(=O)O)CC(=O)NCCOCCOCCNS(=O)(=O)c1ccc(O[C@H]2c3ccccc3C[C@@H]2N2CCCCC2)cc1)CC(=O)NCCOCCOCCNS(=O)(=O)c1ccc(O[C@H]2c3ccccc3C[C@@H]2N2CCCCC2)cc1 [compound 65] | 8.00 | 85 |  | 1 | 93 |  |  |  |  |  |  | 1.41
O=C(NCCCCNC(=O)NCCOCCOCCNS(=O)(=O)c1ccc(O[C@H]2c3ccccc3C[C@@H]2N2CCCCC2)cc1)NCCOCCOCCNS(=O)(=O)c1ccc(O[C@H]2c3ccccc3C[C@@H]2N2CCCCC2)cc1 [compound 66] | 8.35 | 30 |  | 1 | 35 |  |  |  |  |  |  | 4.47
CN1Cc2c(Cl)cc(Cl)cc2[C@H](c2cccc(S(=O)(=O)NCCOCCOCCOCCNC(=O)CN(CCN(CC(=O)O)CC(=O)NCCOCCOCCOCCNS(=O)(=O)c3cccc([C@@H]4CN(C)Cc5c(Cl)cc(Cl)cc54)c3)CC(=O)O)c2)C1 [compound 67] | 8.70 | 67 | 8.00 | 2 | 4 |  |  |  |  |  |  | 
O=C(NCCCCNC(=O)NCCOCCOCCNS(=O)(=O)c1ccc(O[C@H]2c3cc(Cl)cc(Cl)c3C[C@@H]2N2CCCCC2)cc1)NCCOCCOCCNS(=O)(=O)c1ccc(O[C@H]2c3cc(Cl)cc(Cl)c3C[C@@H]2N2CCCCC2)cc1 [compound 68] | <5.00 | 97 | <5.00 | 1 | 70 |  |  |  |  |  |  | 
CN1Cc2c(Cl)cc(Cl)cc2[C@H](c2cccc(S(=O)(=O)NCCOCCOCCOCCNC(=O)CN3CCN(c4nc(N5CCN(CC(=O)NCCOCCOCCOCCNS(=O)(=O)c6cccc([C@@H]7CN(C)Cc8c(Cl)cc(Cl)cc87)c6)CC5)nc(N5CCN(CC(=O)NCCOCCOCCOCCNS(=O)(=O)c6cccc([C@@H]7CN(C)Cc8c(Cl)cc(Cl)cc87)c6)CC5)n4)CC3)c2)C1 [compound 69] | 6.70 | 78 | 6.60 | 1 | 82 |  |  |  |  |  |  | 
CN1Cc2c(Cl)cc(Cl)cc2[C@H](c2cccc(S(=O)(=O)NCCOCCOCCOCCNC(=O)NCCN3CCN(c4nc(N5CCN(CCNC(=O)NCCOCCOCCOCCNS(=O)(=O)c6cccc([C@@H]7CN(C)Cc8c(Cl)cc(Cl)cc87)c6)CC5)nc(N5CCN(CCNC(=O)NCCOCCOCCOCCNS(=O)(=O)c6cccc([C@@H]7CN(C)Cc8c(Cl)cc(Cl)cc87)c6)CC5)n4)CC3)c2)C1 [compound 70] | 7.20 | 83 | 6.70 | 1 | 96 |  |  |  |  |  |  | 
CN1Cc2c(Cl)cc(Cl)cc2[C@H](c2cccc(S(=O)(=O)NCCOCCOCCOCCNC(=O)CN(CC(=O)NCCOCCOCCOCCNS(=O)(=O)c3cccc([C@@H]4CN(C)Cc5c(Cl)cc(Cl)cc54)c3)[C@@H]3CCCC[C@H]3N(CC(=O)NCCOCCOCCOCCNS(=O)(=O)c3cccc([C@@H]4CN(C)Cc5c(Cl)cc(Cl)cc54)c3)CC(=O)NCCOCCOCCOCNS(=O)(=O)c3cccc([C@@H]4CN(C)Cc5c(Cl)cc(Cl)cc54)c3)c2)C1 [compound 71] | 7.00 | 40 | 6.50 | 1 | 80 |  |  |  |  |  |  | 
O=C(NCCCCNC(=O)NCCOCCOCCOCCNS(=O)(=O)c1ccc(O[C@H]2c3ccccc3C[C@@H]2N2CCCCC2)cc1)NCCOCCOCCOCCNS(=O)(=O)c1ccc(O[C@H]2c3ccccc3C[C@@H]2N2CCCCC2)cc1 [compound 72] | 8.25 | 43 |  | 1 | 33 | 99 | 115 | 1 | 2 | 82 | 74 | 5.01
